pIC50: −log10 of the molar value.
Experiments:
[1] = target: T1, ASIC1a (Homo sapiens, UniProt P78348); assay: Calcium imaging of MES-induced calcium response (FLIPR); assay type: cell-based; parameters: host or cells: HEK293; conditions: ASIC1a expressing HEK293 cells, MES-induced calcium response; read-out: IC50 (FLIPR)
T1 sequence (P78348 1-528): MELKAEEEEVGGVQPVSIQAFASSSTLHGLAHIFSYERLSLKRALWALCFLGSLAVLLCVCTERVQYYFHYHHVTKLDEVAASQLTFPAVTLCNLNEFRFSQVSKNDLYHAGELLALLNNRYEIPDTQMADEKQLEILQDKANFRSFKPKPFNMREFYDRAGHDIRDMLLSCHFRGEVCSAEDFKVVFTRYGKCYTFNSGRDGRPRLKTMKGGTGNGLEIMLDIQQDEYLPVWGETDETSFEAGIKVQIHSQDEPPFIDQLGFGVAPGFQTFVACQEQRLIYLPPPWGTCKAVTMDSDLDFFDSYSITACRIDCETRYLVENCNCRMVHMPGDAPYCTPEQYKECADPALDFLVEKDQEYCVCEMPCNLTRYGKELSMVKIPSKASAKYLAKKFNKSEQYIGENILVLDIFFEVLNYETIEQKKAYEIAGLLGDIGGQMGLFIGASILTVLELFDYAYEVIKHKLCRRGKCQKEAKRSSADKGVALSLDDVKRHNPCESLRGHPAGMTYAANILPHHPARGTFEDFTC

[2] = target: T1, ASIC1a; assay: Two-electrode voltage clamp in Xenopus laevis oocytes (Xo), acid-induced currents; assay type: cell-based; parameters: expressed in transfected cells; host or cells: Xenopus laevis oocytes (nuclear microinjection of expression vector such as pcDNA3); conditions: 50 μM, Xenopus oocytes; read-out: % inh. at 50 μM (Xo)
Procedure: Two-electrode voltage clamp electrophysiological assays in Xenopus laevis oocytes expressing gated ion channels are performed as follows:
Oocytes are surgically removed from adult Xenopus laevis and treated for 2 h at room temperature with 1 mg/ml type I collagenase (Sigma) in Barth's solution under mild agitation. Selected oocytes at stage IV-V are defolliculated manually before nuclear microinjection of 2.5-5 ng of a suitable expression vector, such as pcDNA3, comprising the nucleotide sequence encoding a gated ion channel subunit protein. In such an experiment, the oocytes express homomultimeric proton-gated ion channels on their surface. In an alternate experiment, one, two, three or more vectors comprising the coding sequences for distinct gated ion channel subunits are co-injected in the oocyte nuclei. In the latter case, oocytes express heteromultimeric proton-gated ion channels. For example, ASIC2a and/or ASIC3 subunits in pcDNA3 vector are co-injected at a 1:1 cDNA ratio. After 2-4 days of expression at 19° C. in Barth's solution containing […] gentamicin and 1.8 mM CaCl2, gated ion channels are activated by applying an acidic solution (pH<7) and currents are recorded in a two electrode voltage-clamp configuration, using an OC-725B amplifier (Warner Instruments). Currents are acquired and digitized at 500 Hz on an Apple Imac G3 computer with an A/D NB-MIO-16XL interface (National Instruments) and recorded traces are post-filtered at 100 Hz in Axograph (Axon Instruments) (Neher, E. and Sakmann, B. (1976) Nature 260:799-802). Once impaled with the microelectrodes, oocytes are continuously superfused at 10-12 ml/min with a modified Ringer's solution containing 97 mM NaCl, 2 mM KCl, 1.8 mM CaCl2, and 10 mM HEPES brought to pH 7.4 with NaOH (Control Ringer). Test Ringer solution is prepared by replacing HEPES with MES and adjusting the pH to the desired acidic value. Compounds of the present invention are prepared in both the Control and Test Ringer solutions and applied to oocytes at room temperature through a computer-controlled switching valve system. Osmolarity of all solutions is adjusted to 235 mOsm with choline chloride. Similarly, recordings can also be acquired in an automated multichannel oocytes system as the OpusExpress™ (Molecular Devices, Sunnyvale, USA).
FIGS. 1A and 2A illustrate the inhibitory effects of Compounds 203 and 206 on acid-induced activation of recombinant homomeric hASIC1a channels.

| Compound | pIC50 [1] | inhibition at 50 µM [2] [%] |
| --- | --- | --- |
| CN(C)/C=C1/C(=O)Nc2c1cc(-c1ccccc1)c1c2CN(C)CC1 [Compound 95] | < 4.15 | < 25 |
| Cc1nc2c3c(c(-c4ccccc4)cc2c(=O)o1)CCN(C)C3 [Compound 97] | < 4.15 | < 25 |
| CN1CCc2c(-c3ccccc3)cc3c(=O)[nH]c(=O)[nH]c3c2C1 [Compound 98] | < 4.15 | 20 to 40 |
| CN1CCc2c(-c3ccccc3)cc3[nH]c(=O)[nH]c3c2C1 [Compound 99] | < 4.15 | < 25 |
| CN1CCc2c(-c3ccccc3)cc3c(c2C1)NC(=O)/C3=N/N [Compound 102] | 4.40 to 4.70 | > 50 |
| CN1CCc2c(-c3ccccc3)cc3c(c2C1)NC(=O)/C3=N\NC(N)=O [Compound 103] | 4.22 to 4.40 | < 25 |
| CN1CCc2c(-c3ccccc3)cc3c(c2C1)NC(=O)/C3=N/NC(N)=S [Compound 104] | < 4.15 | 30 to 50 |
| [H]/N=C(\N)N/N=C1/C(=O)Nc2c1cc(-c1ccccc1)c1c2CN(C)CC1 [Compound 105] | 4.40 to 4.70 | 20 to 30 |
| CN1CCc2c(-c3ccccc3)ccc(CN)c2C1 [Compound 115] | < 4.15 | < 25 |
| COc1ccc(NC(=O)NCc2ccc(-c3ccccc3)c3c2CN(C)CC3)cc1 [Compound 117] | < 4.15 | < 25 |
| CCOC(=O)CNCc1ccc(-c2ccccc2)c2c1CN(C)CC2 [Compound 118] | < 4.15 | < 25 |
| CN1CCc2c(-c3ccccc3)ccc(CNCC(=O)O)c2C1 [Compound 119] | < 4.15 | < 25 |
| CCOC(=O)N1CCc2c(-c3ccccc3)ccc(CN)c2C1 [Compound 120] | < 4.15 | < 25 |
| CCOC(=O)CNCc1ccc(-c2ccccc2)c2c1CN(C(=O)OCC)CC2 [Compound 121] | < 4.15 | < 25 |
| CCOC(=O)/C=N\c1ccc(-c2ccccc2)c2c1CN(C)CC2 [Compound 124] | < 4.15 | < 25 |
| CCOC(=O)C(=O)Nc1ccc(-c2ccccc2)c2c1CN(C(=O)OCC)CC2 [Compound 125] | < 4.15 | < 25 |
| CCOC(=O)CNc1ccc(-c2ccccc2)c2c1CN(C)CC2 [Compound 126] | 4.40 to 4.70 | < 25 |
| CN1CCc2c(-c3ccccc3)ccc(NCC(=O)O)c2C1 [Compound 127] | < 4.15 | < 25 |
| CN1CCc2c(-c3ccccc3)cc(C(N)=O)c(N)c2C1 [Compound 128] | < 4.15 | < 25 |
| CN1CCc2c(-c3ccccc3)ccc(NC(=O)OC(C)(C)C)c2C1 [Compound 129] | 4.15 to 4.30 | < 25 |
| CN1CCc2c(-c3ccccc3)cc(C#N)c(NC(=O)OC(C)(C)C)c2C1 [Compound 130] | < 4.15 | < 25 |
| CN1CCc2c(-c3ccccc3)ccc(NC(=O)CCO)c2C1 [Compound 131] | < 4.15 | < 25 |
| COC(=O)CCC(=O)Nc1ccc(-c2ccccc2)c2c1CN(C)CC2 [Compound 132] | < 4.15 | < 25 |
| CN1CCc2c(-c3ccccc3)ccc(NC(=O)CCCO)c2C1 [Compound 133] | < 4.15 | < 25 |
| CN1CCc2c(-c3ccccc3)ccc(NC(=O)CCC(=O)O)c2C1 [Compound 134] | < 4.15 | < 25 |
| O=[N+]([O-])c1ccc(-c2ccccc2)c2ccncc12 [Compound 135] | < 4.15 | < 25 |
| Nc1ccc(-c2ccccc2)c2ccncc12 [Compound 136] | < 4.15 | < 25 |
| COC(=O)CC(=O)Nc1ccc(-c2ccccc2)c2c1CN(C)CC2 [Compound 137] | < 4.15 | < 25 |
| CCOC(=O)N1CCc2c(-c3ccccc3)ccc(NCC(=O)O)c2C1 [Compound 138] | < 4.15 | < 25 |

From patent publication US20080004272A1, “Compositions and methods for modulating gated ion channels” (PainCeptor Pharma Corporation, priority 2006, published 2008)
